From PMC7402526, “An in vitro quantitative systems pharmacology approach for deconvolving mechanisms of drug-induced, multilineage cytopenias” (PLoS Computational Biology, 2020)

How the values were obtained:
Format in all cases: cell-based, human
monocytes (monocyte-lin) = experiment: MLTA, Mono: concentration-response and QSP model fit; details: Homo sapiens, Monocyte
Method: (§1) A custom optimized cytokine cocktail was developed using commercially available cytokines (Peprotech, New Jersey) to facilitate simultaneous multi-lineage differentiation and self-renewal of freeze-thawed primary human bone marrow-derived CD34+ cells in SFEM II media (cells and media from StemCell Technologies, Vancouver). Cultures were carried out in ultra-low attachment 96-well plates (Corning, New York) with test article added on day 0 and cultured at 37°C, 85% relative humidity, and 5% CO2 for six days before interrogating drug impact via 17-parameter flow cytometry.
(§2) The flow cytometry panel used to define hematopoietic subsets was composed of CD34-PECy7, CD90-PECY5, CD38-AF488, CD371-PE, CD45Ra-BV421, CD14-BV605, CD42b-AF647, CD10-PEDazzle594, CD235a-PerCPCy5.5 (BioLegend, California), CD15-BUV395, CD41a-APCH7, CD71-BV786 (BD Biosciences, California), and DAPI for dead cell exclusion (ThermoFisher, California). In short, Day 6 cells were harvested, FcR-blocked (FcR binding inhibitor, ThermoFisher), surface-stained, then analyzed in a buffer containing TruCount Control Beads using a BD LSR Fortessa SORP fitted with a high-throughput sampler (BD Biosciences, California). Data was analyzed in Diva 6.0.2 and exported to CSV where after all cell data was transformed to cell per mL then normalized on a per-donor basis to untreated control wells to determine drug impact.
(§3) Donor material was collected and cultured as described above. The number of replicate donor samples per drug ranged from 2–7 and varied per drug (S1 Table). Drug treatment was added at time 0 and cells were maintained in culture for 6 days. Concentrations tested for each drug compound are contained in S1 Table. Concentrations were selected to span a range that is clinically useful. Following treatment, cell populations were measured using flow cytometry. We extracted cell counts from flow cytometry data, normalized to bead counts, and corrected for well volume.
(§4) Each well was normalized to the average of six vehicle control wells. For drugs that were tested across multiple runs of the assay, vehicle-normalized donor data were pooled, and we used the average of these pooled data for further modeling. Normalized data used as model inputs are included in S1 Table.
(§5) We implemented drug effects using an Emax model for the drug’s effect on each cell type. The 13 maximum effect parameters (EmaxT,C) are unitless and can vary between 0 and 2 and where a subscript, C, represents one of the previously described 13 cell types. We adapted a traditional Emax model using the equations below. We interpreted EmaxT values less than or equal to one as anti-proliferative, and EmaxT values greater than one as indicating a cell-killing mechanism in addition to anti-proliferation. The relationships for these effects are included in the model using the following equations. Eq 2 describes the drug anti-proliferative effect in the net proliferation rate for a given cell type. Eq 3 describes the cell-killing EmaxCK effect.
(§6) Towards the estimation of mechanistic parameters, we considered different formulations: (a) weighting the objective value to prioritize fitting dead cells and (b) using regularization methodology to encourage a parsimonious solution. We assessed the contributions of these formulations using mean-squared error and goodness of fit plots for drugs with known mechanisms. […] Further, we used L1 regularization to penalize parameters […] to help identify a parsimonious set of parameters to explain drug effects.

[1] = test system: multi-potent progenitors (MPPs); experiment: MLTA, MPPs: concentration-response and QSP model fit; details: Homo sapiens
Method: as §1, §2, §3, §4, §5, §6

B cells (B-lin) = experiment: MLTA, B-lin: concentration-response and QSP model fit; details: Homo sapiens, B-cell
Method: as §1, §2, §3, §4, §5, §6

[2] = test system: lymphocyte progenitors (LymP); experiment: MLTA, LymP: concentration-response and QSP model fit; details: Homo sapiens, Lymphocyte
Method: as §1, §2, §3, §4, §5, §6

[3] = test system: monocyte progenitors (monocyte prog); experiment: MLTA, MonoP: concentration-response and QSP model fit; details: Homo sapiens, Monocyte
Method: as §1, §2, §3, §4, §5, §6

MK cells (MK-lin) = experiment: MLTA, MK: concentration-response and QSP model fit; details: Homo sapiens
Method: as §1, §2, §3, §4, §5, §6

[4] = test system: hematopoietic stem cells (HSCs); experiment: Multi-lineage toxicity assay (MLTA), HSCs: concentration-response and QSP model fit; details: Homo sapiens, Hematopoietic stem cell
Method: as §1, §2, §3, §4, §5, §6

[5] = test system: granulocyte progenitor (Gran-lin prog); experiment: MLTA, GranP: concentration-response and QSP model fit; details: Homo sapiens
Method: as §1, §2, §3, §4, §5, §6

[6] = test system: early erythroid cells (Eryth I); experiment: MLTA, ErythI: concentration-response and QSP model fit; details: Homo sapiens
Method: as §1, §2, §3, §4, §5, §6

[7] = test system: neutrophils (neutrophil-lin); experiment: MLTA, Neut: concentration-response and QSP model fit; details: Homo sapiens, Neutrophil
Method: as §1, §2, §3, §4, §5, §6

granulocytes (Gran-lin) = experiment: MLTA, Gran: concentration-response and QSP model fit; details: Homo sapiens
Method: as §1, §2, §3, §4, §5, §6

[8] = test system: late erythroid cells (Eryth II); experiment: MLTA, ErythII: concentration-response and QSP model fit; details: Homo sapiens
Method: as §1, §2, §3, §4, §5, §6

[9] = test system: granulocyte-macrophage progenitor (GMPs); experiment: MLTA, GMPs: concentration-response and QSP model fit; details: Homo sapiens; QSP model parameter, sheet EC50_parameters; GMPs
Method: as §1, §2, §3, §4, §5, §6

Nc1cccc2c1CN(C1CCC(=O)NC1=O)C2=O (stereo not shown) [Lenalidomide]
Emax (monocytes (monocyte-lin); 144 h, parameter from QSP model fitting, read-out: Emax_drug_Mono): 3.68e-06% | EC50 (monocytes (monocyte-lin); QSP model parameter, sheet EC50_parameters, Mono): 292 nM | Emax ([1]; 144 h, parameter from QSP model fitting, read-out: Emax_drug_MPP): 4.52e-05% | EC50 ([1]; QSP model parameter, sheet EC50_parameters, MPPs): 786 nM | Emax (B cells (B-lin); 144 h, parameter from QSP model fitting, read-out: Emax_drug_B): 1.49e-05% | EC50 (B cells (B-lin); QSP model parameter, sheet EC50_parameters, B): 1000 nM | Emax ([2]; 144 h, parameter from QSP model fitting, read-out: Emax_drug_LymP): 0.0004% | EC50 ([2]; QSP model parameter, sheet EC50_parameters, LymP): 26.7 nM | Emax ([3]; 144 h, parameter from QSP model fitting, read-out: Emax_drug_MonoP): 3.83e-05% | EC50 ([3]; QSP model parameter, sheet EC50_parameters, MonoP, read-out: EC50MonoP): 1050 nM | Emax (MK cells (MK-lin); 144 h, parameter from QSP model fitting, read-out: Emax_drug_MK): 2.23e-06% | EC50 (MK cells (MK-lin); QSP model parameter, sheet EC50_parameters, MK): 763 nM | Emax ([4]; 144 h, parameter from QSP model fitting, read-out: Emax_drug_HSC): 1.33e-06% | EC50 ([4]; QSP model parameter, sheet EC50_parameters, HSCs): 1130 nM | Emax ([5]; 144 h, parameter from QSP model fitting, read-out: Emax_drug_GranP): 5.98e-05% | EC50 ([5]; QSP model parameter, sheet EC50_parameters, GranP, read-out: EC50GranP): 937 nM | Emax ([6]; 144 h, parameter from QSP model fitting, read-out: Emax_drug_ErythroidI): 1.17e-05% | EC50 ([6]; QSP model parameter, sheet EC50_parameters, Erythroid I, read-out: EC50ErythroidI): 76.9 nM | Emax ([7]; 144 h, parameter from QSP model fitting, read-out: Emax_drug_Neut): 4.07e-06% | EC50 ([7]; QSP model parameter, sheet EC50_parameters, Neut): 2690 nM | Emax (granulocytes (Gran-lin); 144 h, parameter from QSP model fitting, read-out: Emax_drug_Gran): 9.94e-05% | EC50 (granulocytes (Gran-lin); QSP model parameter, sheet EC50_parameters, Gran): 3180 nM | Emax ([8]; 144 h, parameter from QSP model fitting, read-out: Emax_drug_ErythroidII): 1.48e-06% | EC50 ([8]; QSP model parameter, sheet EC50_parameters, Erythroid II, read-out: EC50ErythroidII): 262 nM | EC50 [9]: 3060 nM
